US8188078B2 (Sanofi-Aventis, priority 2007, dated 2012)

Legend:
MET = target: T1, MET (Homo sapiens, UniProt P08581); assay: Test C: inhibition of the autophosphorylation of MET, ELISA technique (pppY1230, 1234, 1235), MKN45 cells; assay type: cell-based
T1 construct: endogenous in cells; host or cells: MKN45 cells
Description: C) Inhibition of the Autophosphorylation of MET; ELISA Technique (pppY1230, 1234, 1235)
a) Cellular lysates: Sow the MKN45 cells in a 96-well plate (Cell coat BD polylysine) at 20 000 cells/well under 200 μl of medium RPMI+10% FCS+1% L-glutamine. Leave to adhere to the incubator for 24 h.
The cells are treated on the day after sowing with the products at 6 concentrations in duplicate for 1 h. At least 3 control wells are treated with the same amount of final DMSO.
Dilution of the products: Stock at 10 mM in pure DMSO—range from 10 mM to 30 μM with steps of 3 of pure DMSO—Intermediate dilutions to 1/50 in culture medium then taking of 10 μl added directly to the cells (200 μl): final range from 10000 to 30 nM.
At the end of incubation, carefully remove the supernatant and rinse with 200 μl of PBS. Then put 100 μl of lysis buffer directly in the wells on ice and incubate at 4° C. for 30 minutes. Lysis buffer: 10 mM Tris, HCl pH7.4, 100 mM NaCl, 1 mM EDTA, 1 mM EGTA, 1% Triton X-100, 10% glycerol, 0.1% SDS, 0.5% deoxycholate, 20 mM NaF, 2 mM Na3VO4, 1 mM PMSF and antiprotease cocktail.
The 100 μl of lysates are transferred to a V-bottomed polypropylene plate and ELISA is performed next or the plate is frozen at −80° C.
b) ELISA PhosphoMET BioSource Kit KH00281
In each well of the plate from the kit, add 70 μl of dilution buffer from the kit+30 μL of cell lysate or 30 μl of lysis buffer for the blank. Incubate for 2 h at room temperature, stirring gently.
Rinse the wells 4 times with 400 μl of washing buffer from the kit. Incubate with 100 μl of anti-phospho MET antibodies for 1 h at room temperature.
Rinse the wells 4 times with 400 μl of washing buffer from the kit. Incubate with 100 μl of anti-rabbit HRP antibodies for 30 minutes at room temperature (except for the wells with chromogen only).
Rinse the wells 4 times with 400 μl of washing buffer from the kit. Add 100 μL of chromogen and incubate for 30 minutes in the dark at room temperature.
Stop the reaction with 100 μl of stop solution. Read at once at […] 0.1 second in the Wallac Victor plate reader.
The products of formula (I) as defined above show cellular activity in this test between 10 nM and 10 μM.

MKN45 cells = assay: Test D: cellular proliferation by 14C-thymidine pulse, MKN45 cells; assay type: cell-based; settings: cell line not stated (HCT116 or MKN45)
Description: D) Measurement of Cellular Proliferation by 14C-Thymidine Pulse
The cells are sown in Cytostar 96-well plates under 180 μl for 4 hours at 37° C. and 5% CO2: The HCT116 cells at a rate of 2500 cells per well in DMEM medium+10% foetal calf serum+1% of L-glutamine and the MKN45 cells at a rate of 7500 cells per well in RPMI medium+10% foetal calf serum+1% of L-glutamine. After said incubation for 4 hours, the products are added under 10 μl in 20-times concentrated solution according to the method of dilution stated for ELISA. The products are tested at 10 concentrations in duplicate from 10000 nM to 0.3 nM in steps of 3.
After treatment for 72 h, add 10 μl of 14C-thymidine at 10 μCi/ml to obtain 0.1 μCi per well. The incorporation of 14C-thymidine is measured on a Micro-Beta (Perkin-Elmer) after 24 hours of pulse and 96 h of treatment.
All the stages of the test are automated on the BIOMEK 2000 or TECAN stations.

c-MET = target: T2, c-MET (Homo sapiens, UniProt P08581); assay: Test A: HTRF Met test in 96-well format; assay type: biochemical
T2 construct: The recombinant DNA His-Tev-MET (956-1390) in pFastBac(Invitrogen); His (N, cleaved yes); Tev (TEV protease site) (N, cleaved yes); made in house; host or cells: SF21 insect cells (baculovirus, pFastBac)
Description: I) Expression and Purification of MET, Cytoplasmic Domain
The recombinant DNA His-Tev-MET (956-1390) in pFastBac(Invitrogen) is transfected in insect cells and after several stages of viral amplification, the final stock of baculovirus is tested for expression of the protein of interest.
After infection for 72 h at 27° C. with the recombinant virus, the SF21 cell cultures are harvested by centrifugation and the cellular deposits are stored at −80° C.
The cellular deposits are resuspended in the lysis buffer (buffer A [50 mM HEPES, pH 7.5, 250 mM NaCl, Glycerol 10%, TECP 1 mM]; +cocktail of protease inhibitors Roche Diagnostics without EDTA, ref 1873580), stirred at 4° C. until homogeneous, then lysed mechanically using apparatus of the “Dounce” type.
After centrifugation, the lysis supernatant is incubated for 2 h at 4° C. with Nickel Chelate resin (His-Trap 6 Fast Flow™, GE HealthCare). After washing with 20 volumes of Tp A, the suspension is packed in a column, and the proteins are eluted with a gradient of buffer B ([…]+290 mM imidazole).
The fractions containing the protein of interest with a view to electrophoretic analysis (SDS PAGE) are collected, concentrated by ultrafiltration (cut-off 10 kDa) and injected in an exclusion chromatography column (Superdex™ 200, GE HealthCare) equilibrated with buffer A.
After enzymatic cleavage of the tag Histidine, the protein is reinjected in a new IMAC Nickel Chelate chromatography column (His-Trap 6 Fast Flow™, GE HealthCare) equilibrated with Buffer A. The fractions eluted with a gradient of buffer B and containing the protein of interest after electrophoresis (SDS PAGE), are finally collected and stored at −80° C.
For the production of autophosphorylated protein, the preceding fractions are incubated for 1 h at room temperature after adding ATP 2 mM, MgCl2 2 mM, and Na3VO4 4 mM. After stopping the reaction with 5 mM of EDTA, the reaction mixture is injected in a HiPrep desalting column (GE HealthCare) equilibrated beforehand with buffer A+Na3VO4 4 mM; the fractions containing the protein of interest (SDS PAGE analysis) are collected and stored at −80° C. The degree of phosphorylation is verified by mass spectrometry (LC-MS), and by peptide mapping.
A) HTRF Met test in 96-well format
In a final volume of 50 μl of enzymatic reaction mixture, final c-MET 5 nM is incubated in the presence of the molecule to be tested (for a final concentration range from 0.17 nM to 10 μM, final DMSO 3%) in buffer MOPS 10 mM pH 7.4, DTT 1 mM, Tween 20 0.01%. The reaction is initiated by the substrate solution to obtain the final concentrations of poly-(GAT) 1 μg/ml, ATP 10 μM and MgCl2 5 mM. After incubation for 10 min at room temperature, the reaction is stopped with a mix of 30 μl to obtain a final solution of Hepes 50 mM pH 7.5, potassium fluoride 500 mM, BSA 0.1% and EDTA 133 mM in the presence of 80 ng Streptavidin 61SAXLB Cis-Bio Int. and 18 ng anti-phosphotyrosine Mab PT66-Europium Cryptate per well. After 2 hours of incubation at room temperature, reading is carried out at 2 wavelengths 620 nm and 665 nm in a reader for the TRACE/HTRF technique and the percentage inhibition is calculated according to the 665/620 ratios.

[1] = Homo sapiens, MKN-45, cellular proliferation by 14C-thymidine pulse

T2 sequence (P08581 956-1390): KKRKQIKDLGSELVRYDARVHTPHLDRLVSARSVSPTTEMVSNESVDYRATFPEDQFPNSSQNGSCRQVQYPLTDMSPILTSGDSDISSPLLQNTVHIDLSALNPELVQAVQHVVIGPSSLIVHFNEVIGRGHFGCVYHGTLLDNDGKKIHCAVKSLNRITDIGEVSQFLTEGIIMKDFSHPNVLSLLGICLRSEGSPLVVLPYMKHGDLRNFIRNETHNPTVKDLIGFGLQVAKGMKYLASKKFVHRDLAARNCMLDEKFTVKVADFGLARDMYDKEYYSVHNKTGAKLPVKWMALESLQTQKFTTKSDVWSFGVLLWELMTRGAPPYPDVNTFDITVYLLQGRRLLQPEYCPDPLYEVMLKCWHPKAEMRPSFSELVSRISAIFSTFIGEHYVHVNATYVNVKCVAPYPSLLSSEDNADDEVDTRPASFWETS
T1 sequence (P08581 25-1390): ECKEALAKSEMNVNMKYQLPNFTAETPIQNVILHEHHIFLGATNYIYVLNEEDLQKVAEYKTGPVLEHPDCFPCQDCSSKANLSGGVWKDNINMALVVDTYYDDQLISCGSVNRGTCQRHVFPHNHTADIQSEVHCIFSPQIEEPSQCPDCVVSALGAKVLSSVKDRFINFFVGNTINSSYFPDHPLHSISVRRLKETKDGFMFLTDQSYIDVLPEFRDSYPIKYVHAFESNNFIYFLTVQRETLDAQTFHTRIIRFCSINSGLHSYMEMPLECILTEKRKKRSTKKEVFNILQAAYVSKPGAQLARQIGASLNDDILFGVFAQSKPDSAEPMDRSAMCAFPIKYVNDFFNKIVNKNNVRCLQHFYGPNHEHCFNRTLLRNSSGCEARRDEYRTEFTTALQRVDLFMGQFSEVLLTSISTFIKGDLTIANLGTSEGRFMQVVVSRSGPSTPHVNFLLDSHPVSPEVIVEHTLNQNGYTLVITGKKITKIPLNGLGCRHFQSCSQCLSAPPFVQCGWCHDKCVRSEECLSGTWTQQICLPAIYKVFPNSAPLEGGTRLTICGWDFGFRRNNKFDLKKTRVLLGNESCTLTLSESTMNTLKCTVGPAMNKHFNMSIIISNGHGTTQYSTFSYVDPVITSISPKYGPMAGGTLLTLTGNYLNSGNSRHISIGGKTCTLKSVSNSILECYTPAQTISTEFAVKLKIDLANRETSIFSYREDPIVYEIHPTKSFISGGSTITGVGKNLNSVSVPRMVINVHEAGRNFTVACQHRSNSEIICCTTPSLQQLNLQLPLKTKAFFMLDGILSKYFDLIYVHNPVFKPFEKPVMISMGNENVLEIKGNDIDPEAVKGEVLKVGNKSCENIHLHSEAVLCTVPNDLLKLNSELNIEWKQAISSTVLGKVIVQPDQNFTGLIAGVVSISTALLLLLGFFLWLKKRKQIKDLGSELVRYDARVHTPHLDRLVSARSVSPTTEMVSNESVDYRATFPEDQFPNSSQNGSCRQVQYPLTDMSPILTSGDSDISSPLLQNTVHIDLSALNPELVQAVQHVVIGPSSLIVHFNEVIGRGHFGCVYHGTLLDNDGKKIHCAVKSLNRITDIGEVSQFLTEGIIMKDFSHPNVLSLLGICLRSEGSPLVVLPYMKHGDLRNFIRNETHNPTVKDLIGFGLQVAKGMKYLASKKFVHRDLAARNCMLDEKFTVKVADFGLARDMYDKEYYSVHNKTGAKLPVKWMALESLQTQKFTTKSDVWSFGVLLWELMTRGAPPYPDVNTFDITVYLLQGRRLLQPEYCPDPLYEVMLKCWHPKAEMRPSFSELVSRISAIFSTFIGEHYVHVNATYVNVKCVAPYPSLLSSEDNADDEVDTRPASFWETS

SMILES | IC50 (MET) [µM] | IC50 (MKN45 cells; [1]) [µM] | IC50 (c-MET) [µM] | melting point [°C] | IC50 (MKN45 cells; cellular proliferation by 14C-thymidine pulse) [µM]
CC(Oc1ccc2nc(NC(=O)NCCC3CCN(Cc4ccccc4)CC3)sc2c1)c1c(Cl)ccc(F)c1Cl (centres unmarked) [Example 52, 1-[2-(1-benzylpiperidin-4-yl)ethyl]-3-{6-[1-(2,6-dichloro-3-fluorophenyl)ethoxy]-1,3-benzothiazol-2-yl}urea] | < 0.5 | 0.5 to 10 | < 0.1 |  | 
Nc1nc2ccc(OCc3c(F)cccc3F)cc2s1 [Example 12, 6-[(2,6-difluorobenzyl)oxy]-1,3-benzothiazol-2-amine] |  | > 10 |  | 178 | 
CC(Oc1ccc2nc(N)sc2c1)c1c(Cl)ccc(F)c1Cl (centres unmarked) [Example 23, 6-[1-(2,6-dichloro-3-fluorophenyl)ethoxy]-1,3-benzothiazol-2-amine] |  | > 10 | 0.1 to 10 | 186 to 194 | 
COCCOC(=O)Nc1nc2cc(F)c(OC(C)c3c(Cl)ccc(F)c3Cl)cc2s1 (centres unmarked) [Example 72] | 0.5 to 10 | 0.5 to 10 | < 0.1 |  | 
COC(COC(N)=O)c1nc2cc(F)c(OC(C)c3c(Cl)ccc(F)c3Cl)cc2s1 (centres unmarked) [Example 72, {6-[1-(2,6-dichloro-3-fluorophenyl)ethoxy]-5-fluoro-1,3-benzothiazol-2-yl}2-methoxyethyl carbamate] |  |  |  | 200 to 205 | 
CC(Oc1cc2sc(NC(=O)NC3CC3)nc2cc1F)c1c(Cl)ccc(F)c1Cl (centres unmarked) [Example 131, 1-cyclopropyl-3-{6-[1-(2,6-dichloro-3-fluorophenyl)ethoxy]-5-fluoro-1,3-benzothiazol-2-yl}urea] | < 0.5 | < 0.5 | < 0.1 |  | 
CC(Oc1ccc2nc(C(COC(N)=O)N3CCOCC3)sc2c1)c1c(Cl)ccc(F)c1Cl (centres unmarked) [Example 74, {6-[1-(2,6-dichloro-3-fluorophenyl)ethoxy]-1,3-benzothiazol-2-yl}2-(morpholin-4-yl)ethyl carbamate] |  |  |  | 235 to 240 | 
CC(Oc1cc2sc(NC(=O)NCCCC(C)(C)OC(N)=O)nc2cc1F)c1c(Cl)ccc(F)c1Cl (centres unmarked) [Example 87, {2-[({6-[1-(2,6-dichloro-3-fluorophenyl)ethoxy]-5-fluoro-1,3-benzothiazol-2-yl}carbamoyl)amino]ethyl}2-methylpropan-2-yl carbamate] |  |  |  | 230 | 
Cc1ccc(F)c(C(C)Oc2ccc3nc(N)sc3c2)c1Cl (centres unmarked) [Example 27, 6-[1-(2-chloro-6-fluoro-3-methylphenyl)ethoxy]-1,3-benzothiazol-2-amine] |  | > 10 | 0.1 to 10 | 170 | 
CC(Oc1cc2sc(NC(=O)NCCNC(=O)OC(C)(C)C)nc2cc1F)c1c(Cl)ccc(F)c1Cl (centres unmarked) [Example 87] | 0.5 to 10 | 0.5 to 10 | < 0.1 |  | 
CC(Oc1ccc2nc(NC(=O)NCCC3CCN(C(=O)OC(C)(C)C)CC3)sc2c1)c1c(Cl)ccc(F)c1Cl (centres unmarked) [Example 38, 1,1-dimethylethyl 4-{2-[({6-[1-(2,6-dichloro-3-fluorophenyl)ethoxy]-1,3-benzothiazol-2-yl}carbamoyl)amino]ethyl}piperidine-1-carboxylate] |  | > 10 |  | 95 to 105 | 
CCN(CC)C(CCOC(N)=O)c1nc2cc(F)c(OC(C)c3c(Cl)ccc(F)c3Cl)cc2s1 (centres unmarked) [Example 70, {6-[1-(2,6-dichloro-3-fluorophenyl)ethoxy]-5-fluoro-1,3-benzothiazol-2-yl}3-(diethylamino)propyl carbamate] |  |  |  | 188 to 190 | 
CCN(CC)CCOC(=O)Nc1nc2cc(F)c(OC(C)c3c(Cl)ccc(F)c3Cl)cc2s1 (centres unmarked) [Example 71] | 0.5 to 10 | 0.5 to 10 | < 0.1 |  | 
CNC(=O)OC(C)(C)CCCNC(=O)Nc1nc2cc(F)c(OC(C)c3c(Cl)ccc(F)c3Cl)cc2s1 (centres unmarked) [Example 95, {2-[({6-[1-(2,6-dichloro-3-fluorophenyl)ethoxy]-5-fluoro-1,3-benzothiazol-2-yl}carbamoyl)amino]ethyl}2-methylpropan-2-yl methylcarbamate] |  |  |  | 151 to 193 | 
CC(Oc1cc2sc(NC(=O)NCCN)nc2cc1F)c1c(Cl)ccc(F)c1Cl (single isomer, unassigned) [Example 90, 1-(2-aminoethyl)-3-{6-[(1S*)-1-(2,6-dichloro-3-fluorophenyl)ethoxy]-5-fluoro-1,3-benzothiazol-2-yl}urea] |  |  | < 0.1 |  | 0.5 to 10
CC(Oc1ccc2nc(NC(=O)NCCN3CCOCC3)sc2c1)c1c(Cl)ccc(F)c1Cl (single isomer, unassigned) [Example 26, 1-{6-[(1S*)-(2,6-dichloro-3-fluorophenyl)ethoxy]-1,3-benzothiazol-2-yl}-3-(2-morpholin-4-ylethyl)urea] | 0.5 to 10 |  | 0.1 to 10 |  | 
CCN(CC)C(COC(N)=O)c1nc2cc(F)c(OC(C)c3c(Cl)ccc(F)c3Cl)cc2s1 (centres unmarked) [Example 71, {6-[1-(2,6-dichloro-3-fluorophenyl)ethoxy]-5-fluoro-1,3-benzothiazol-2-yl}2-(diethylamino)ethyl carbamate] |  |  |  | 184 to 186 | 
